Results reported in patent publication US4430342A, “N-Acyl-3-[4-(benzoylalkyl)piperazin-1-yl]-sydnonimine compound, process for prodction thereof, and use thereof” (Hidaka; Hiroyoshi, priority 1981, dated 1984).
In brackets after ≈: the same amount, converted by molar mass. Structures can show the parent of a compound that is named as a salt. Where two headings read alike, the source gives them in different places.

How the values were obtained:
[1] = acute toxicity in male dd-strain mice; details: mouse, in vivo
Description: The acute toxicity of the in vivo active type of this typical compound as a prodrug was tested by using male dd-strain mice (body weight 16 to 20 g).

[2] = system: extracted heart of a guinea pig; assay: coronary blood flow, Langendorf's method, extracted heart; details: 0.1 ml of 10^-4 g/ml solution injected
Description: The increase or decrease of the coronary blood flow was examined by the Langendorf's method using the extracted heart of a guinea pig. […] On the other hand, when 0.1 ml of morsydmine (10^-4 g/ml solution) was injected, no increase in the coronary blood flow was observed.

[3] = solubility in water, dilute hydrochloric acid and Carmody's buffer by absorbance at 317 nm; format: physicochemical; details: 25° C.
Description: The solubility of the N-ethoxycarbonyl-3-[4-(4-benzoylbutyl)piperazin-1-yl]sydnonimine obtained in Example 1 in water dilute hydrochloric acid and the Carmody's buffer was measured by the absorbance of the solution at 317 nm.

[4] = water solubility of the salts; format: physicochemical
[5] = system: human platelet aggregation; assay: collagen-induced human platelet aggregation inhibiting activity, in vitro; format: cell-based; details: human platelets, read-out: Platelet aggregation inhibiting activity (50% inhibition)
Source text: (§1) Table 1 summarizes the results of in vitro tests in which the human platelet aggregation inyibitory activity of the 3-[4-(benzoylalkyl)piperazin-1-yl]sydnonimines of formula (2) and their relaxing activity on the extracted mesenteric artery of a rabbit were examined.
(§2) The mesenteric artery relaxing activity is shown by the […] (μM) of a drug required to induce 50% of the maximum relaxation, and the platelet aggregation inhibiting activity, by the concentration (μM) of a drug required to inhibit collagen-induced platelet aggregation to an extent of 50%.

[6] = system: extracted mesenteric artery of a rabbit; assay: mesenteric artery relaxing activity, in vitro (extracted artery); details: Oryctolagus cuniculus, read-out: Mesenteric artery relaxing activity (50% of the maximum relaxation)
Source text: as §1, §2

cerebral cortex = assay: blood flow in the cerebral cortex (cross thermocouple method); format: in vivo, rabbit; details: 0.5 mg/kg via retroauricular vein
Description: Male rabbits having a body weight of about 3 kg, five per group, were used. Under sodium pentobarbital anesthesia, a tracheal cannula was inserted into each rabbits, and under artificial respiration, 2 mg of gallamine triethiodide was intravenously injected to immobilize the animals. The animals were each fixed to a brain stereotaxic apparatus (Todai Noken type). An element of the double needle type (WN-301, manufactured by Unique Medical Co.) was inserted into the frontal contex through a hole provided by a dental drill, and variations in potential were recorded. After the blood flow was stabilized, the test drug and a control drug were each administered through a cannula inserted into the retroauricular vein of the right ear. The percent increase in the blood flow was calculated by taking the blood flow at death as 0 and the blood flow before drug administration as 100%. When the compound A (0.5 mg/kg) was administered as the test drug, the blood flow increased by 10 to 20%. But when the control drug, morsydmine, (0.5 mg/kg) was administered, no increase in the blood flow was noted.

amygdaloid nucleus = assay: local cerebral blood flow, amygdaloid nucleus (hydrogen gas clearance method); format: in vivo, rabbit; details: 0.5 mg/kg i.v.; until 1 hour after administration; based on blood flow before administration
Description: (a) Activity on the hippocampus and amygdaloid nucleus (by the hydrogen gas clearance method) Rabbits having a body weight of about 3 kg, five per group, were used. A tracheal cannula was inserted into each rabbit under sodium pentobarbital anesthesia, and under artificial respiration, gallamine triethiodide was intravenously administered in a dose of 2 mg/kg to immobilize it. The animal was then fixed to a brain stereotaxic apparatus (Todai Noken type). Gallamine triethiodide was also intramuscularly administered in a dose of 3 mg/kg every one hour.
The local cerebral blood flow was measured by the hydrogen gas clearance method (UH meter, PHG-201, manufactured by Unique Medical Co., Ltd.). Platinum electrodes having a diameter of 300 μm and coated with an epoxy resin were inserted in the hippocampus (P:4, L:5, H:+5) and the amygdaloid nucleus (A:2, L:6, H:-6) in accordance with the brain atlas of Sawyer et al. An indifferent electrode was placed under the skin of the head and fixed there. […] The resulting curve was plotted semilogarithmically, and the half-time period (T 1/2) was determined by the initial slope method. The blood flow was calculated from the following equation.
The blood flow was measured every thirty minutes. […]

Q: Which results are given for `CCOC(=O)[N-]c1c[n+](N2CCN(CCCCC(=O)c3ccccc3)CC2)no1` [Compound A]?
A: LD50 ([1]; intravenous administration): 91 mg/kg; LD50 ([1]; oral administration): 750 mg/kg; LD50 ([1]; sc, subcutaneous administration): 350 mg/kg; activation at 100 µg/mL ([2]; Cavia porcellus, read-out: increase in the coronary blood flow): 14%

Q: Which solubility ([3]; 0.001 n hydrochloric acid, 0.001 N (pH 3), read-out: Solubility in dilute hydrochloric acid) does the source give for `CCOC(=O)[N-]c1c[n+](N2CCN(CCCCC(=O)c3ccccc3)CC2)no1` [Compound A, N-carboethoxy-3-[4-(4-benzoylbutyl)piperazin-1-yl]sydnonimine] here?
A: 2300 µg/mL (≈ 5.73 mM)

Q: And the solubility ([3]; 0.01 n hydrochloric acid, 0.01 N (pH 2), read-out: Solubility in dilute hydrochloric acid)?
A: 6300 µg/mL (≈ 15.7 mM)

Q: And the solubility ([3]; 0.1 n hydrochloric acid, 0.1 N (pH 1), read-out: Solubility in dilute hydrochloric acid)?
A: 10400 µg/mL (≈ 25.9 mM)

Q: And the solubility ([3]; carmody's buffer, pH 2, read-out: Solubility in Carmody's buffer)?
A: 15600 µg/mL (≈ 38.9 mM)

Q: What about the solubility ([3]; carmody's buffer, pH 3, read-out: Solubility in Carmody's buffer) of the same compound?
A: 9300 µg/mL (≈ 23.2 mM)

Q: And the solubility ([3]; carmody's buffer, pH 4, read-out: Solubility in Carmody's buffer)?
A: 4400 µg/mL (≈ 11 mM)

Q: And the solubility ([3]; carmody's buffer, pH 5, read-out: Solubility in Carmody's buffer)?
A: 1000 µg/mL (≈ 2.49 mM)

Q: And the solubility ([3]; carmody's buffer, pH 6, read-out: Solubility in Carmody's buffer)?
A: 400 µg/mL (≈ 0.996 mM)

Q: And the solubility ([3]; carmody's buffer, pH 7, read-out: Solubility in Carmody's buffer)?
A: 100 µg/mL (≈ 0.249 mM)

Q: And the solubility ([3]; water, read-out: Solubility in water)?
A: 10 µg/mL (≈ 0.0249 mM)

Q: With `CCOC(=O)[N-]c1c[n+](N2CCN(CCCCC(=O)c3ccccc3)CC2)no1` [Nitrate, N-ethoxycarbonyl-3-[4-(4-benzoylbutyl)-piperazin-1-yl]sydnonimine] as the compound, how does the Solubility in water [4] read?
A: 0.43%

Q: For `CCOC(=O)[N-]c1c[n+](N2CCN(CCCCC(=O)c3ccccc3)CC2)no1` [Oxalate, N-ethoxycarbonyl-3-[4-(4-benzoylbutyl)-piperazin-1-yl]sydnonimine], which Solubility in water [4] is on record?
A: 0.46%

Q: Which IC50 [5] does the source give for `[NH-]c1c[n+](N2CCN(CCCCCCC(=O)c3ccccc3)CC2)no1` [R = H, n = 5] here?
A: 940 nM

Q: And the EC50 [6]?
A: 120 nM

Q: For `CC(C)CC(CCCN1CCN([n+]2cc([NH-])on2)CC1)C(=O)c1ccccc1` (stereo not shown) [R = iso-C4 H9, n = 3, 3-[4-(benzoyl-6-methylheptyl)piperazin-1-yl]sydnonimine dihydrochloride], which IC50 [5] is on record?
A: 11000 nM

Q: Which IC50 [5] does the source give for `[NH-]c1c[n+](N2CCN(CCCCC(=O)c3ccccc3)CC2)no1` [R = H, n = 3, 3-[4-(4-benzoylbutyl)piperazin-1-yl]sydnonimine dihydrochloride] here?
A: 3400 nM

Q: What about the EC50 [6] of the same compound?
A: 200 nM

Q: For `[NH-]c1c[n+](N2CCN(CCCCCCCCC(=O)c3ccccc3)CC2)no1` [R = H, n = 7, 3-[4-(8-benzoyloctyl)piperazin-1-yl]sydnonimine dihydrochloride], which IC50 [5] is on record?
A: 28 nM

Q: And the EC50 [6]?
A: 58 nM

Q: With `[NH-]c1c[n+](N2CCN(CCCC(=O)c3ccccc3)CC2)no1` [R = H, n = 2] as the compound, how does the IC50 [5] read?
A: 5400 nM

Q: What about the EC50 [6] of the same compound?
A: 2300 nM

Q: Which Solubility in water [4] does the source give for `CCOC(=O)[N-]c1c[n+](N2CCN(CCCCC(=O)c3ccccc3)CC2)no1` [Hydrochloride, N-ethoxycarbonyl-3-[4-(4-benzoylbutyl)-piperazin-1-yl]sydnonimine] here?
A: 0.89%

Q: Which IC50 [5] does the source give for `[NH-]c1c[n+](N2CCN(CC(=O)c3ccccc3)CC2)no1` [R = H, n = 0, 3-[4-(benzoylmethyl)piperazin-1-yl]sydnonimine dihydrochloride] here?
A: 140 nM

Q: What about the EC50 [6] of the same compound?
A: 160 nM

Q: With `[NH-]c1c[n+](N2CCN(CCCCCC(=O)c3ccccc3)CC2)no1` [R = H, n = 4] as the compound, how does the IC50 [5] read?
A: 6300 nM

Q: What about the EC50 [6] of the same compound?
A: 3000 nM

Q: For `CCOC(=O)[N-]c1c[n+](N2CCN(CCCCC(=O)c3ccccc3)CC2)no1` [Maleate, N-ethoxycarbonyl-3-[4-(4-benzoylbutyl)-piperazin-1-yl]sydnonimine], which Solubility in water [4] is on record?
A: 0.94%

Q: For `CCOC(=O)[N-]c1c[n+](N2CCOCC2)no1` [morsydmine], which “coronary blood flow, result in words” value [2] is on record?
A: no increase

Q: And the “blood flow in the cerebral cortex, result in words” value (cerebral cortex)?
A: no increase

Q: And the “increase of local cerebral blood flow at the amygdaloid nucleus” value (amygdaloid nucleus)?
A: about 15%
